Reference: patent publication US20010018182A1, “Methods of monitoring disease states and therapies using gene expression profiles” (Rosetta Inpharmatics, Inc., priority 1998, published 2001)

Assays:
[1] = system: yeast Saccharomyces cerevisiae; test: growth defect of yeast on methotrexate drug exposure; assay type: cell-based; conditions: 100 μM titration of methotrexate
[2] = system: yeast gene YOL031C expression; test: gene transcript array mRNA expression response to methotrexate titrations, Hill function fit; assay type: cell-based, Saccharomyces cerevisiae; conditions: least squares fit of YOL031C expression response (log10 expression ratio); exposure levels 3, 6, 25, 50, 100, 200 μM
Source text: FIG. 2 illustrates an example of perturbation response profiles measured at discrete protein activity levels of dihydrofolate reductase. Specifically, the figure illustrates mRNA expression levels of 30 genes of the yeast Saccharomyces cerevisiae that, of the approximately 6000 genes in the genome of this yeast, had the largest expression changes in response to six different titrations of the drug methotrexate, which is known to act primarily by disrupting the activity of dihydrofolate reductase. These gene expression level measurements were made with gene transcript arrays, as described in Section 5.4. The perturbation response profiles in FIG. 2 can be interpolated according to the methods disclosed in Section 5.3, below, to provide perturbation response profiles for any activity level of dihydrofolate reductase, and are thereby correlated to efficacy of the drug methotrexate.
In model fitting, the perturbation responses are interpolated by approximating each by a single parameterized function. An exemplary model-fitting function appropriate for approximating transcriptional state data is the Hill function, which has adjustable parameters a, u0, and n. [formula]
the adjustable parameters are selected independently for each cellular constituent of the perturbation response. Preferably, the adjustable parameters are selected so that for each cellular constituent the sum of the squares of the distances H(pl) from Rk(Pl) is minimized. This preferable parameter adjustment method is known in the art as a least squares fit of H( ) to Rk( ). Other possible model functions are based on polynomial fitting, for example by various known classes of polynomials.
Model fitting with a Hill function is illustrated with respect to FIGS. 2 and 3. As discussed, FIG. 2 illustrates an example of perturbation by methotrexate and identified by measurement. […]

## CN(Cc1cnc2nc(N)nc(N)c2n1)c1ccc(C(=O)N[C@@H](CCC(=O)O)C(=O)O)cc1 [methotrexate]
[1]
  growth defect: 50%
[2]
  Hill function parameter a: −0.61
  Hill function parameter log10(u0): 1.26
  Hill function parameter n: 2
